# Patent US8193333B2, “Cancer therapy using Bcl-Xl-specific siNA” (Centre Regional de Lutte Contre le Cancer-Centre Francois …, priority 2006, dated 2012)
# Legend:
# Bcl-XL protein = experiment: Western blot of Bcl-XL protein expression in tumour cell lines after siRNA transfection; type: cell-based, human; conditions: SKOV3 cells
# Procedure: SKOV3, OAW42, OAW42-R10, IGROV1 and IGROV1-R10 human ovarian adenocarcinoma cell lines, GL15 glioblastoma cell line, and NCI-H28 mesothelioma cell line were obtained from ECACC or ATCC. OAW42, OAW42-R10 cells were grown in DMEM (GIBCO-BRL) supplemented with 10% foetal calf serum (GIBCO-BRL), 2 mM Glutamax™ (GIBCO-BRL), 1 mM sodium pyruvate (GIBCO-BRL), 20 UI/L human recombinant insulin (LILLY), 33 mM sodium bicarbonate and 20 mM HEPES All the other cell lines were grown in RPMI 1640 medium (GIBCO-BRL) supplemented with 10% foetal calf serum (GIBCO-BRL), 2 mM Glutamax™ (GIBCO-BRL), 33 mM sodium bicarbonate and 20 mM HEPES. Cells were maintained at 37° C. in a 5% CO2 humidified atmosphere, and split twice a week by trypsinization.
# (§1) Exponentially growing cells were exposed to CDDP for 2 hours at 37° C., in serum free medium. After exposure to the drug, the cell layers were rinsed and incubated in complete growth medium.
# (§2) The siRNA duplexes were transfected according to the recommended procedure by using the Oligofectamine Reagent and Opti-MEM medium (INVITROGEN LIFE TECHNOLOGIES). 30-40% confluent cells were transfected in 25 cm^2 flasks with different concentrations of siXL1, siRNA Mcl-1 or siRNA control and incubated at 37° C., 5% CO2 for 4 hours. Next, 20% fetal bovin serum was added to reach a final concentration of 10% foetal bovin serum in the 25 cm^2 flask.
# (§3) Cells were rinsed with ice cold PBS and lysed in 150 mM NaCl, 50 mM Tris-HCl pH 8, 1% Triton X100, 4 mM PMSF, 2 mM Aprotinin, 5 mM EDTA, 10 mM NaF, 10 mM NaPPi, 1 mM Na3VO4 for 30 min on ice. Lysates were clarified by centrifugation at 10000 g for 10 min at 4° C. and protein concentrations were determined using the Bradford assay (BIO-RAD). Equal amounts of total cellular protein (20 μg) were resolved in a Bis-tris-HCL buffered (pH 6.4) 4-12% polyacrylamide gel (NuPAGE® Novex® 4-12% Bis-tris gel, INVITROGEN) for 35 min at 200V and electrophoretically transferred on a PVDF membrane (MILLIPORE) for 75 min at 30V. The membrane was blocked for 1 hour at room temperature in T-TBS (132 mM NaCl, 20 mM Tris-HCl pH 7.6, 0.05% Tween 20) supplemented with 5% non-fat dry milk. The membrane was incubated for 1 hour at room temperature in T-TBS-milk with the following primary antibodies: anti-Bcl-XL/S (1:500, S18 SANTA-CRUZ BIOTECHNOLOGY), anti-PARP (1:1000, CELL-SIGNALING TECHNOLOGY), anti-caspase-3 (1:1000, BD BIOSCIENCES PHARMINGEN) anti-cleaved caspase-3 (1:1000, CELL-SIGNALING TECHNOLOGY), anti-alpha-tubulin (1:3000, SIGMA) and anti-Mcl-1 (1:750, S19 SANTA-CRUZ BIOTECHNOLOGY). After three washes with T-TBS, the membrane was incubated for 1 h at room temperature in T-TBS-milk with the adequate peroxidase conjugated secondary antibody (Anti-rabbit IgG, CELL-SIGNALING TECHNOLOGY, and anti-mouse IgG, AMERSHAM). After 3 washes with T-TBS and one with TBS, the immunoreactivity was detected by enhanced chemiluminescence (ECL kit, AMERSHAM).
# SKOV3 cells [1] = experiment: Cell mortality, viability, growth and cell cycle of SKOV3 cells (morphology, trypan blue exclusion, FACS of DNA content); type: cell-based, human; conditions: for cell death (morphology, FACS analysis of the cell cycle): cisplatin 5 or 20 μg/ml, siRNA 150 nM; for cellular and nuclear morphologies and cell cycle versus untransfected SKOV3 cells: alone 150 nM or in combination 75 nM each, 72 h after transfection, FIG. 13
# Procedure: as §1, §2
# (§4) After treatment, detached cells were collected separately and adherent cells were dissociated by trypsin/EDTA. Adherent and detached cells were then pooled and centrifuged at 1500×g for 5 min before being fixed in 70% ethanol. The cells were then collected on a polylysine-coated glass slide by cytocentrifugation, before a 30 min room temperature incubation in a 1 μg/ml DAPI aqueous solution (BOEHRINGER MANNHEIM). Slides were thereafter extensively washed in distilled water and mounted in Mowiol (CALBIO-CHEM).
# After treatment, detached cells were collected separately. Adherent cells were then harvested by trypsin/EDTA dissociation. Adherent and detached cells were then pooled and washed in PBS before being fixed in 70% ethanol and stored at −20° C. until analysis. Before flow cytometry analysis, the cells were washed in PBS and incubated for 30 min at room temperature in PBS in order to allow the release of low molecular weight (m.w.) DNA, characteristic of apoptotic cells. After a centrifugation at 4000 g for 10 min, the cell pellets were resuspended and stained with propidium iodide (PI) using the DNA Prep Coulter Reagent Kit (BECKMAN-COULTER) at a final concentration of 10^6 cells/ml.
# Samples were analyzed using an EPICS XL flow cytometer (BECKMAN COULTER) equipped with an argon laser at 15 mW. PI-stained cells were analyzed using a 488 mn excitation. A 620 nm band pass filter was put on the red fluorescence of PI. Computerized gating was applied on the side and forward scatter to exclude very small debris and on pulse width and integral peak of red fluorescence to eliminate aggregates. All samples were analyzed at a flow rate lower than 100 events per second and with a sheath pressure of 30 psi.
# SKOV3 cells [2] = experiment: Apoptosis induction in SKOV3 cells (cell and nuclear morphology after DAPI, caspase 3 activation and PARP cleavage by Western blot); type: cell-based, human; conditions: 24 h, combination with 20 μg/ml cisplatin
# Procedure: as §1, §2, §3, §4
# [3] = tested on: intraperitoneal SKOV3 human ovarian adenocarcinoma; experiment: Survival of nude mice bearing intraperitoneal SKOV3 tumours; type: in vivo, Swiss/nude mice; conditions: siRNA 25 μg/kg, cisplatin 4 μg/kg intraperitoneal, treatment repeated one month later, FIG. 15
# Procedure: 4-week-old female Swiss/nude mice were obtained from CHARLES-RIVER LABORATORIES and maintained in a pathogen-free environment. The mice were fed a standard laboratory diet and tap water ad libitum and kept a 23±1° C. with a 12 h light/dark cycle. Animal experiments in the present study were performed in compliance with the guidelines of the Federation of european laboratory animal science associations.
# 6-8 weeks old mice were implanted intraperitoneally with 2×10^7 ovarian adenocarcinoma SKOV3 cells. As described previously, this model reflects the i.p growth pattern of advanced ovarian cancer (Louis et al, Cancer Gene Therapy, 2006, 13, 367-374).
# Twenty one days after tumour implantation, mice were allocated to one of the eight treatment groups (10 mice per group) summarized in Table II: • Group 1 comprised untreated animals. • Group 2 received intraperitoneal injection of 4 μg/kg cisplatin in 1 ml 0.9% NaCl solution. • Group 3 received intraperitoneal injection of 25 μg/kg control siRNA in 1 ml 0.9% NaCl. • Group 4 received intraperitoneal injection of 25 μg/kg Bcl-XL siRNA in 1 ml 0.9% NaCl. • Group 5 received intraperitoneal injection of 25 μg/kg control siRNA in 1 ml 0.9% NaCl and the following day 4 μg/kg of cisplatin in 1 ml 0.9% NaCl solution. • Group 6 received intraperitoneal injection of 4 μg/kg of cisplatin in 1 ml 0.9% NaCl solution and the following day 25 μg/kg control siRNA in 1 ml 0.9% NaCl. • Group 7 received intraperitoneal injection of 25 μg/kg Bcl-XL siRNA in 1 ml 0.9% NaCl and the following day 4 μg/kg of cisplatin in 1 ml 0.9% NaCl solution. • Group 8 received intraperitoneal injection of 4 μg/kg of cisplatin in 1 ml 0.9% NaCl solution and the following day 25 μg/kg Bcl-XL siRNA in 1 ml 0.9% NaCl.
# The same treatment was repeated one month later. Mice were killed and autopsied when considered as moribund. Organs and tumours were formalin-fixed and paraffin-embedded for histological examination. At the end of the experiment, all surviving animals were sacrificed, and histological examination was performed in order to detect residual tumour nodes.
# Mcl-1 protein = experiment: Western blot of Mcl-1 protein expression in SKOV3 cells; type: cell-based, human; conditions: FIG. 11B
# Procedure: as §2
# Cells were rinsed with ice cold PBS and lysed in 150 mM NaCl, 50 mM Tris-HCl pH 8, 1% Triton X100, 4 mM PMSF, 2 mM Aprotinin, 5 mM EDTA, 10 mM NaF, 10 mM NaPPi, 1 mM Na3VO4 for 30 min on ice. Lysates were clarified by centrifugation at 10000 g for 10 min at 4° C. and protein concentrations were determined using the Bradford assay (BIO-RAD). Equal amounts of total cellular protein (20 μg) were resolved in a Bis-tris-HCL buffered (pH 6.4) 4-12% polyacrylamide gel (NuPAGE® Novex® 4-12% Bis-tris gel, INVITROGEN) for 35 min at 200V and electrophoretically transferred on a PVDF membrane (MILLIPORE) for 75 min at 30V. The membrane was blocked for 1 hour at room temperature in T-TBS (132 mM NaCl, 20 mM Tris-HCl pH 7.6, 0.05% Tween 20) supplemented with 5% non-fat dry milk. […] After 3 washes with T-TBS and one with TBS, the immunoreactivity was detected by enhanced chemiluminescence (ECL kit, AMERSHAM).
# Mcl-1 mRNA = experiment: RT-PCR of Mcl-1 mRNA in SKOV3 cells; type: cell-based, human; conditions: 72 h after transfection, FIG. 11A
# Procedure: as §2
Compound,"Bcl-XL protein expression 24 hours after exposure to cisplatin (Bcl-XL protein; 72 hours after siRNA transfection, cisplatin 5 and 20 μg/ml, FIG. 9)","cell mortality / cell cycle after several days (SKOV3 cells [1]; SKOV3 cells, cisplatin 5 and 20 μg/ml)","cell death (morphology, FACS analysis of the cell cycle) (SKOV3 cells [1]; SKOV3 cells)",caspase 3 activation and PARP cleavage after 24 h exposure to cisplatin (SKOV3 cells [2]),effect on mice survival [3],"effect of various concentrations on Bcl-XL protein expression (Bcl-XL protein; 72 h after transfection, FIG. 3)",cellular and nuclear morphologies and cell cycle versus untransfected SKOV3 cells (SKOV3 cells [1]),Mcl-1 protein expression after 72 hours (Mcl-1 protein),"cytotoxic effect on SKOV3 cells (SKOV3 cells [1]; 50 nM each siRNA, absence of cisplatin, FIG. 12)","cytotoxic effect of each siRNA (SKOV3 cells [1]; SKOV3 cells, FIGS. 13 and 14)",Mcl-1 mRNA expression (RT-PCR) (Mcl-1 mRNA)
"N.N.[Cl][Pt][Cl] [cisplatin, cis-diamino-dichloro-platinum II, reference compound]",no effect,only a transient arrest in cell cycle progression,low level or no cell death,no sign of apoptosis,does not improve survival,–,–,–,–,–,–
"control siRNA: control siRNA without homology to relevant human genes; sense SEQ ID NO: 9, anti-sense SEQ ID NO: 10 (sense GACGUGGGACUGAAGGGGUTT; antisense ACCCCUUCAGUCCCACGUCTT; chemistry not given here) [reference compound]",–,–,no changes,–,does not increase the mice survival,No effect,no difference,–,–,–,–
"siMcl-1: Mcl-1 specific siRNA; sense 5′-gugccuuuguggcuaaacatt-3′ (SEQ ID NO: 7), anti-sense 5′-uguuuagccacaaaggcacct-3′ (SEQ ID NO: 8) (sense GUGCCUUUGUGGCUAAACATT; antisense UGUUUAGCCACAAAGGCACCT; chemistry not given here)",–,–,–,–,–,–,no difference,disappeared totally,no cytotoxic effect,slight cytoxic effect,almost completely
